# From patent publication US20040082557A1, “Methods for treating estrogen-dependent disorders” (priority 2001, published 2004)
# Key:
# endometrial explants = test: Animal model of endometriosis in adult female rats (endometrium autotransplanted under the renal capsule); type: in vivo, rat; conditions: for volume of the explant: measured one week after the fourth weekly dose
# [1] = tested on: pain symptoms in premenopausal women; test: Randomized, double-blind, parallel group clinical study of exemestane on pain symptoms in premenopausal women with endometriosis; type: in vivo, human; conditions: for ESS Composite Improvement from Visit 6 (Baseline): No / ESS Composite Improvement from Visit 6 (Baseline): Yes: % of total reported
# [2] = 25 mg orally per day, Visit 10 (4 weeks of exemestane)
# [3] = 25 mg orally per day, Visit 10 (4 weeks of exemestane), improvement = decrease of at least 1 point
# [4] = 25 mg orally per day, Visit 14 (8 weeks of exemestane)
# [5] = 25 mg orally per day, Visit 18 (follow-up)
# [6] = 100 mg orally per day, Visit 10 (4 weeks of exemestane)
# [7] = 100 mg orally per day, Visit 10 (4 weeks of exemestane), improvement = decrease of at least 1 point
# [8] = 100 mg orally per day, Visit 14 (8 weeks of exemestane)
# [9] = 100 mg orally per day, Visit 18 (follow-up)
# [10] = either treatment group (25 or 100 mg/day), over the study period
smiles,measurement,setting,value
"C=C1C[C@@H]2[C@H](CC[C@]3(C)C(=O)CC[C@@H]23)[C@@]2(C)C=CC(=O)C=C12 [Exemestane, 6-methylenandrost-1,4-diene-3,17-dione]",volume of the explant,"endometrial explants; exemestane alone, intramuscularly once a week for 4 consecutive weeks",dose-related decrease in the volume of the explant
same,"effect on growth of the endometrial explants, combination","endometrial explants; exemestane in combination with triptorelin at marginally or intermediate effective doses, 4 weeks",additive or synergistic effect
same,tolerability,"[1]; 25 mg and 100 mg, 54 woman subjects who received at least one dose",well tolerated
same,"Dysmenorrhea: Improvement over Visit 6 (Baseline, Start of Treatment): No",[1]; [2],44.0%
same,"Dyspareunia: Improvement over Visit 6 (Baseline, Start of Treatment): No",[1]; [2],35.3%
same,"Pelvic Pain: Improvement over Visit 6 (Baseline, Start of Treatment): No",[1]; [2],44.0%
same,"ESS Scale, Composite Score, Change from Visit 6, Mean","[1]; 25 mg orally per day, Visit 10 (4 weeks of exemestane), 17 patients with 3 endpoints evaluated, Visit 6 mean 5.0588, SD 2.0917, within treatment p 0.002",−2.000
same,ESS Composite Improvement from Visit 6 (Baseline): No,[1]; [2],56.0%
same,ESS Composite Improvement from Visit 6 (Baseline): Yes,"[1]; 25 mg orally per day, Visit 10 (4 weeks of exemestane), improvement = at least 3-point decrease (3 symptoms) or 2-point (2 symptoms)",44.0%
same,"Dysmenorrhea: Improvement over Visit 6 (Baseline, Start of Treatment): Yes",[1]; [3],56.0%
same,"Dyspareunia: Improvement over Visit 6 (Baseline, Start of Treatment): Yes",[1]; [3],64.7%
same,"Pelvic Pain: Improvement over Visit 6 (Baseline, Start of Treatment): Yes",[1]; [3],56.0%
same,"Dysmenorrhea: Improvement over Visit 6 (Baseline, Start of Treatment): No",[1]; [4],41.7%
same,"Dysmenorrhea: Improvement over Visit 6 (Baseline, Start of Treatment): Yes",[1]; [4],58.3%
same,"Dyspareunia: Improvement over Visit 6 (Baseline, Start of Treatment): No",[1]; [4],31.6%
same,"Dyspareunia: Improvement over Visit 6 (Baseline, Start of Treatment): Yes",[1]; [4],68.4%
same,"Pelvic Pain: Improvement over Visit 6 (Baseline, Start of Treatment): No",[1]; [4],41.7%
same,"Pelvic Pain: Improvement over Visit 6 (Baseline, Start of Treatment): Yes",[1]; [4],58.3%
same,"ESS Scale, Composite Score, Change from Visit 6, Mean","[1]; 25 mg orally per day, Visit 14 (8 weeks of exemestane), 19 patients, Visit 6 mean 5.1579, SD 1.8257, within treatment p <0.001",−2.000
same,ESS Composite Improvement from Visit 6 (Baseline): No,[1]; [4],66.7%
same,ESS Composite Improvement from Visit 6 (Baseline): Yes,[1]; [4],33.3%
same,"Dysmenorrhea: Improvement over Visit 6 (Baseline, Start of Treatment): No",[1]; [5],64.0%
same,"Dysmenorrhea: Improvement over Visit 6 (Baseline, Start of Treatment): Yes",[1]; [5],36.0%
same,"Dyspareunia: Improvement over Visit 6 (Baseline, Start of Treatment): No",[1]; [5],29.4%
same,"Dyspareunia: Improvement over Visit 6 (Baseline, Start of Treatment): Yes",[1]; [5],70.6%
same,"Pelvic Pain: Improvement over Visit 6 (Baseline, Start of Treatment): No",[1]; [5],68.0%
same,"Pelvic Pain: Improvement over Visit 6 (Baseline, Start of Treatment): Yes",[1]; [5],32.0%
same,"ESS Scale, Composite Score, Change from Visit 6, Mean","[1]; 25 mg orally per day, Visit 18 (follow-up), 17 patients, Visit 6 mean 5.0588, SD 1.8028, within treatment p <0.001",−2.000
same,ESS Composite Improvement from Visit 6 (Baseline): No,[1]; [5],84.0%
same,ESS Composite Improvement from Visit 6 (Baseline): Yes,[1]; [5],16.0%
same,"Dyspareunia score, Change from Baseline, Mean ± SD","[1]; 25 mg, Visit 10 (4 weeks of exemestane), baseline 1.6 ± 0.7, N 17",−0.9 ± 0.8
same,"Pelvic Pain score, Change from Baseline, Mean ± SD","[1]; 25 mg, Visit 10 (4 weeks of exemestane), baseline 1.8 ± 0.5, N 25",−0.6 ± 0.9
same,"Dysmenorrhea score, Change from Baseline, Mean ± SD","[1]; 25 mg, Visit 10 (4 weeks of exemestane), baseline 2.0 ± 0.6, N 17",−0.9 ± 0.8
same,"Dyspareunia score, Change from Baseline, Mean ± SD","[1]; 25 mg, Visit 14 (8 weeks of exemestane), baseline 1.6 ± 0.7, N 19",−0.8 ± 0.6
same,"Pelvic Pain score, Change from Baseline, Mean ± SD","[1]; 25 mg, Visit 14 (8 weeks of exemestane), baseline 1.8 ± 0.5, N 24",−0.6 ± 0.9
same,"Dysmenorrhea score, Change from Baseline, Mean ± SD","[1]; 25 mg, Visit 14 (8 weeks of exemestane), baseline 2.0 ± 0.6, N 19",−0.8 ± 0.6
same,"Dysmenorrhea: Improvement over Visit 6 (Baseline, Start of Treatment): No",[1]; [6],38.5%
same,"Dyspareunia: Improvement over Visit 6 (Baseline, Start of Treatment): No",[1]; [6],38.9%
same,"Pelvic Pain: Improvement over Visit 6 (Baseline, Start of Treatment): No",[1]; [6],30.8%
same,"ESS Scale, Composite Score, Change from Visit 6, Mean","[1]; 100 mg orally per day, Visit 10 (4 weeks of exemestane), 18 patients, Visit 6 mean 5.9444, SD 2.0364, within treatment p <0.001",−2.5000
same,ESS Composite Improvement from Visit 6 (Baseline): No,[1]; [6],46.2%
same,ESS Composite Improvement from Visit 6 (Baseline): Yes,"[1]; 100 mg orally per day, Visit 10 (4 weeks of exemestane), improvement = at least 3-point decrease (3 symptoms) or 2-point (2 symptoms)",53.8%
same,"Dysmenorrhea: Improvement over Visit 6 (Baseline, Start of Treatment): Yes",[1]; [7],61.5%
same,"Dyspareunia: Improvement over Visit 6 (Baseline, Start of Treatment): Yes",[1]; [7],61.1%
same,"Pelvic Pain: Improvement over Visit 6 (Baseline, Start of Treatment): Yes",[1]; [7],69.2%
same,"Dysmenorrhea: Improvement over Visit 6 (Baseline, Start of Treatment): No",[1]; [8],39.1%
same,"Dysmenorrhea: Improvement over Visit 6 (Baseline, Start of Treatment): Yes",[1]; [8],60.9%
same,"Dyspareunia: Improvement over Visit 6 (Baseline, Start of Treatment): No",[1]; [8],47.1%
same,"Dyspareunia: Improvement over Visit 6 (Baseline, Start of Treatment): Yes",[1]; [8],52.9%
same,"Pelvic Pain: Improvement over Visit 6 (Baseline, Start of Treatment): No",[1]; [8],30.4%
same,"Pelvic Pain: Improvement over Visit 6 (Baseline, Start of Treatment): Yes",[1]; [8],69.6%
same,"ESS Scale, Composite Score, Change from Visit 6, Mean","[1]; 100 mg orally per day, Visit 14 (8 weeks of exemestane), 17 patients, Visit 6 mean 5.5882, SD 1.9059, within treatment p <0.001",−2.4118
same,ESS Composite Improvement from Visit 6 (Baseline): No,[1]; [8],43.5%
same,ESS Composite Improvement from Visit 6 (Baseline): Yes,[1]; [8],56.5%
same,"Dysmenorrhea: Improvement over Visit 6 (Baseline, Start of Treatment): No",[1]; [9],50.0%
same,"Dysmenorrhea: Improvement over Visit 6 (Baseline, Start of Treatment): Yes",[1]; [9],50.0%
same,"Dyspareunia: Improvement over Visit 6 (Baseline, Start of Treatment): No",[1]; [9],50.0%
same,"Dyspareunia: Improvement over Visit 6 (Baseline, Start of Treatment): Yes",[1]; [9],50.0%
same,"Pelvic Pain: Improvement over Visit 6 (Baseline, Start of Treatment): No",[1]; [9],31.8%
same,"Pelvic Pain: Improvement over Visit 6 (Baseline, Start of Treatment): Yes",[1]; [9],68.2%
same,"ESS Scale, Composite Score, Change from Visit 6, Mean","[1]; 100 mg orally per day, Visit 18 (follow-up), 14 patients, Visit 6 mean 5.5714, SD 1.7852, within treatment p 0.016",−1.4286
same,ESS Composite Improvement from Visit 6 (Baseline): No,[1]; [9],50.0%
same,ESS Composite Improvement from Visit 6 (Baseline): Yes,[1]; [9],50.0%
same,"Dyspareunia score, Change from Baseline, Mean ± SD","[1]; 100 mg, Visit 10 (4 weeks of exemestane), baseline 1.9 ± 1.0, N 18",−1.0 ± 1.3
same,"Pelvic Pain score, Change from Baseline, Mean ± SD","[1]; 100 mg, Visit 10 (4 weeks of exemestane), baseline 2.1 ± 0.5, N 26",−0.8 ± 0.7
same,"Dysmenorrhea score, Change from Baseline, Mean ± SD","[1]; 100 mg, Visit 10 (4 weeks of exemestane), baseline 2.1 ± 0.7, N 18",−1.0 ± 1.3
same,"Dyspareunia score, Change from Baseline, Mean ± SD","[1]; 100 mg, Visit 14 (8 weeks of exemestane), baseline 1.9 ± 1.0, N 17",−0.8 ± 0.8
same,"Pelvic Pain score, Change from Baseline, Mean ± SD","[1]; 100 mg, Visit 14 (8 weeks of exemestane), baseline 2.1 ± 0.5, N 23",−0.8 ± 0.8
same,"Dysmenorrhea score, Change from Baseline, Mean ± SD","[1]; 100 mg, Visit 14 (8 weeks of exemestane), baseline 2.1 ± 0.7, N 17",−0.8 ± 0.7
same,endometriosis symptoms,"[1]; 25 or 100 mg orally per day, 2 months",moderate improvement in endometriosis symptoms
same,blood pressure,[1]; [10],Neither blood pressure nor body weight changed significantly
same,body weight,[1]; [10],Neither blood pressure nor body weight changed significantly
same,"hematology, plasma chemistry or urinalysis laboratory assays",[1]; [10],No noteworthy changes
CC(C)C[C@H](NC(=O)[C@@H](Cc1c[nH]c2ccccc12)NC(=O)[C@H](Cc1ccc(O)cc1)NC(=O)[C@H](CO)NC(=O)[C@H](Cc1c[nH]c2ccccc12)NC(=O)[C@H](Cc1c[nH]cn1)NC(=O)[C@@H]1CCC(=O)N1)C(=O)N[C@@H](CCCNC(=N)N)C(=O)N1CCC[C@H]1C(=O)NCC(N)=O [triptorelin],volume of the explant,"endometrial explants; triptorelin alone, subcutaneously once weekly for 4 weeks",dose-related decrease in the volume of the explant
